{"source": "patent US20100015126A1", "about": "“Methods of Binding of Cross-Beta Structures By Chaperones” (priority 2006, published 2010)", "key": {"[1]": {"tested_on": "freshly isolated human platelets", "test": "Crossbeta-induced human platelet aggregation (aggregometer)", "assay_type": "cell-based", "description": "Ex vivo Human Blood Platelet Aggregation Assay\nThe influence of crossbeta structure binding chaperones on blood platelet aggregation induced by crossbeta structure or crossbeta structure comprising pathogens is tested with washed platelets or with platelet rich plasma in an aggregometric assay. Freshly drawn human aspirin free blood is mixed gently with citrate buffer to avoid coagulation. Blood is spinned for 15′ at 150*g at 20° C. and supernatant is collected; platelet rich plasma (PRP). Buffer with 2.5% trisodium citrate, 1.5% citric acid and 2% glucose, pH 6.5 is added to a final volume ratio of 1:10 (buffer-PRP). After spinning down the platelets upon centrifugation for 15′ at 330*g at 20° C., the pellet is resuspended in HEPES-Tyrode buffer pH 6.5. Prostacyclin is added to a final concentration of 10 ng/ml, and the solution is centrifuged for 15′ at 330*g at 20° C., with a soft brake. The pellet is resuspended in HEPES-Tyrode buffer pH 7.2 in a way that the final platelet number is adjusted to 200,000-250,000 platelets/μl. Platelets are kept at 37° C. for at least 30′, before use in the assays, to ensure that they are in the resting state. Platelets of approximately five donors are isolated separately.\nFor the aggregometric assays, platelet solution is added to a glass tube and prewarmed to 37° C. A stirring magnet is added and rotation is set to 900 rpm, and the apparatus (Whole-blood aggregometer, Chrono-log, Havertown, Pa., USA) is blanked. A final volume of 1/10 of the volume of the platelet suspension is added, containing the agonist of interest and/or the premixed antagonist of interest, prediluted in HEPES-Tyrode buffer pH 7.2. Aggregation is followed in time by measuring the absorbance of the solution, that is decrease in time upon platelet aggregation. As a positive control, either 10 μg/ml collagen (Kollagenreagens Horm, NYCOMED Pharma GmbH, Linz, Austria; lot 502940), or 5 μM of synthetic thrombin receptor activating compound TRAP. In tests to analyse the effect of chaperones, 10-100 μg/ml glycated haemoglobin or 10-100 μg/ml amyloid-β is used to induce platelet aggregation. Aggregation is recorded for at least 15′.\nPlatelet aggregation-studies with freshly isolated human platelets were performed as described above. For aggregation studies, platelets of four separate donors were used on subsequent days."}, "[2]": {"tested_on": "freshly isolated human platelets", "test": "Crossbeta-induced human platelet aggregation (aggregometer)", "assay_type": "cell-based", "details": "8 μM TRAP"}, "HUVECs": {"tested_on": "HUVECs", "test": "FACS: binding of misfolded proteins and BiP to HUVECs", "assay_type": "cell-based, human", "description": "For these experiments HUVECs were isolated by trypsinization. After trypsinization cells were collected in RPMI 1640, containing P/S and 10% FCS and centrifuged. After centrifugation cells were resuspended in RPMI medium without FCS at a concentration of 1.250.000 cells/250 μl. Individual 4-ml tubes (polypropylene, Greiner), containing 250 μl cell suspensions were made. To each tube 75 μl of a sample, containing either, • a. buffer (PBS) only, or • b. 25 μl PBS+50 μl BiP (1.16 mg/ml), or • c. 50 μl buffer with 25 μl oxLDL (1 mg/ml), or • d. 74 μl buffer with 1 μl BSA-AGE (25 mg/ml), or • e. 24 μl PBS+1 μl BSA-AGE (25 mg/ml)+50 μl BiP (1.16 mg/ml), or • f. 25 μl oxLDL (1 mg/ml)+50 μl BiP (1.16 mg/ml), • g. 1.6 μl dIgIV-65 (20 mg/ml)+73.4 μl PBS • h. […]\nwas added. Subsequently, the cells were incubated with the sample for approximately 30 minutes at 4° C. Next, cells were pelleted by centrifugation and the supernatant was discarded. Cells were washed subsequently with FACS buffer (PBS/0.5% BSA/0.05% m/v NaN3) at 4° C. and resuspended in FACS-buffer at approximately 1*10^5 cells/100 μl for subsequent analysis. Cell death was determined by adding 3 μl 7-aminoactinomycin D (7AAD) solution (prepared according to standard procedures). Binding of sample BSA-AGE (see elsewhere in this application for preparation details) was determined with anti-AGE monoclonal antibody 4B5 (10 μg/ml) and, after washing, with goat anti-mouse PE secondary antibodies (Jackson Immunoresearch, West Grove, USA). Binding of BSA-AGE was also assessed using the intrinsic fluorescence of BSA-AGE in the PE channel. Binding of oxidized LDL (oxLDL, oxidized for 56% following incubation with FeSO4; specific enhancement of Thioflavin T fluorescence) was determined with rabbit serum with anti-ApoB100 polyclonal antibodies at a concentration of 160 μg/ml and, after washing the cells, with FITC-labelled goat anti-rabbit antibodies (1:200, Jackson). Binding of dIgIV-65 was assessed by using anti-Human IgG antibody. BiP binding was determined using the earlier mentioned anti-FLAG antibody (M2, Sigma-Aldrich)."}, "[3]": {"tested_on": "human monocyte-derived dendritic cells", "test": "FACS: binding of misfolded proteins and BiP to human monocyte-derived dendritic cells", "assay_type": "cell-based", "from_the_text": "In vitro generation of peripheral blood human monocyte-derived dendritic cells, and analyses for binding of misfolded proteins and BiP\nHuman DCs are generated from non-proliferating precursors selected from peripheral blood mononuclear cells (PBMCs), essentially by published methods (Sallustro and Lanzavecchia [1994], J. Exp. Med. 179 1109-1118). Relative abundant presence of CD1a, CD32, CD36, CD40, CD54, CD86, HLA-DR and CD206 and relative low content of CD14 positive, CD16 positive, CD64 positive, CD80 positive, CD83 positive and CD163 positive cells serve as a quality measure for the immature DCs. After obtaining the immature DCs upon stimulation with GM-CSF and IL-4, direct binding of misfolded proteins and BiP to the DCs is assessed by incubating 200.000 cells (2*10^6 cells/ml) for 30 minutes at 4° C. under metabolic arrested state, with 1) PBS, 2) 58 μg/ml BiP (830 nM), 4) 250 μg/ml BSA-AGE (3.6 μM), 5) BSA-AGE+BiP, 6) 250 μg/ml oxLDL, 7) oxLDL+BiP, 8) mixture of BiP-binding peptides 6BB8-11, 13 (see Table 5), 125 μg/ml+BiP, and 8) 62.5 μg/ml Aβ16-22, 62.5 μg/ml Aβ25-35+BiP. After the incubation and careful washing of the cells, binding of BiP, BSA-AGE and oxLDL is assessed with FACS, using primary antibodies monoclonal anti-FLAG antibody, monoclonal anti-glycated human fibronectin antibody 4B5 and rabbit serum with anti-human apoliprotein B-100 antibody (Dade Behring, Newark, Del., USA), and the appropriate FITC- or PE-labeled secondary antibody. Mean fluorescence intensity (MFI) ratio's are determined by measuring background fluorescence."}}}
{"substance": "BiP: Recombinant human HSP70 family chaperone BiP with C-terminal linker, FLAG-tag and His-tag, expressed in HEK 293E cells", "values": [{"measurement": "Platelet aggregation by protein alone, without activator", "setting": "[1]", "result": "did not induce platelet aggregation"}, {"measurement": "Misfolded protein induced platelet aggregation", "setting": "[1]; activators Aβ42t=0, HbAGE, BSA-AGE, four donors", "result": "potently inhibited"}, {"measurement": "Platelet aggregation induced by amyloid-β1-42", "setting": "[1]; donor a", "result": "strongly inhibited"}, {"measurement": "Platelet aggregation induced by crossbeta BSA-AGE", "setting": "[1]; donor a", "result": "strongly inhibited"}, {"measurement": "Platelet aggregation induced by Aβ1-42", "setting": "[1]; donor b, Aβ42t=0 26.7 μg/ml", "result": "inhibited"}, {"measurement": "Platelet aggregation induced by crossbeta BSA-AGE", "setting": "[1]; donor b, BSA-AGE 33.3 μg/ml", "result": "strongly inhibited"}, {"measurement": "Aβ42 induced platelet activation", "setting": "[1]; donor c", "result": "abolish"}, {"measurement": "BSA-AGE induced platelet aggregation", "setting": "[1]; donor c", "result": "inhibit"}, {"measurement": "HbAGE induced platelet aggregation", "setting": "[1]; donor c", "result": "inhibited"}, {"measurement": "HbAGE induced platelet aggregation", "setting": "[1]; donor d, BiP 58 μg/ml, sRAGE 37.4 μg/ml, HbAGE 80 μg/ml", "result": "inhibits"}, {"measurement": "TRAP-induced platelet aggregation", "setting": "[2]", "result": "unaffected"}, {"measurement": "Binding of BiP to HUVECs (MFI ratio)", "setting": "HUVECs; BiP alone", "result": 1.4}, {"measurement": "Binding of BiP to ECs", "setting": "HUVECs; co-incubated with dIgIV-86", "result": "neither BiP did bind"}, {"measurement": "Binding of BiP to DCs (MFI ratio)", "setting": "[3]; BiP alone, 58 μg/ml, 30 minutes at 4° C.", "result": 1.4}, {"measurement": "Binding to DCs (MFI ratio), BiP", "setting": "[3]; FACS, human dendritic cells, detection of BiP, signal divided by background signal", "result": 1.4}]}
